Assays:
[1] = system: Salmonella Typhimurium; format: cell-based
[2] = system: Escherichia coli (ATCC #25922); format: cell-based
[3] = system: aerobic spores (Bacillus subtilis); format: cell-based
[4] = system: male-specific coliphages (MS-2); format: cell-based, coliphage MS-2
[5] = system: Poliovirus Type 1; format: cell-based, Poliovirus-1
[6] = system: estrogenic activity of 17-β-estradiol (E2); human estrogen receptor (ER) α; experiment: Estrogenic activity, ZR-75 breast cancer cell ERE-Luc reporter assay; format: cell-based; settings: E2 spiked
[7] = system: estrogenic activity of 17-β-estradiol (E2); human estrogen receptor; experiment: Estrogenic activity, YES assay (recombinant yeast); format: cell-based, Saccharomyces cereviciae; settings: E2 spiked
[8] = system: spiked organisms; experiment: Preliminary studies using PBS: ferrate with E-beam on spiked organisms; format: cell-based; settings: ferrate 2 ppm or 4 ppm in combination with E-beam (6 kGy, 8 kGy and 12 kGy)
[9] = system: estrogenic activity of 17-β-estradiol (E2); human estrogen receptor; settings: it has been shown; cited from earlier work
[10] = Table 28, 50 ppm + E-Beam (8 kGy)
[11] = Table 28, 100 ppm + E-Beam (8 kGy)
[12] = Table 28, 200 ppm + E-Beam (8 kGy)
[13] = Table 29, 50 ppm + E-Beam (8 kGy)
[14] = Table 29, 100 ppm + E-Beam (8 kGy)
[15] = Table 29, 200 ppm + E-Beam (8 kGy)

[O]=[Fe](=[O])([O-])[O-] [Ferrate, ferrate]
log reduction (approximated) [1]: around three | surviving bacterial colonies (detection limit) [1]: < 10 CFU/ml | surviving bacterial colonies (detection limit) [2]: < 10 CFU/ml | log reduction of spore formers [3]: two to three | reduction of spore formers (in words) [3]: slight reduction | inactivation (in words) [4]: Complete inactivation | inactivation (in words) [5]: complete elimination | % Reduction in Estrogenic Activity, Liquid Portion (n = 3) ([6]; Table 28 (aerobically digested biosolids, inferred b252), 50 ppm Ferrate): 84% | % Reduction in Estrogenic Activity, Liquid Portion (n = 3) [6, 10]: 85% | % Reduction in Estrogenic Activity, Liquid Portion (n = 3) [6, 11]: 90% | % Reduction in Estrogenic Activity, Liquid Portion (n = 3) ([6]; Table 28, 100 ppm Ferrate): 88% | % Reduction in Estrogenic Activity, Liquid Portion (n = 3) [6, 12]: 81% | % Reduction in Estrogenic Activity, Liquid Portion (n = 3) ([6]; Table 28, 200 ppm Ferrate): 89% | % Reduction in Estrogenic Activity, Liquid Portion (n = 3) ([6]; Table 29 (anaerobically digested biosolids, inferred b252), 50 ppm Ferrate): 68% | % Reduction in Estrogenic Activity, Liquid Portion (n = 3) [6, 13]: 71% | % Reduction in Estrogenic Activity, Liquid Portion (n = 3) [6, 14]: 74% | % Reduction in Estrogenic Activity, Liquid Portion (n = 3) ([6]; Table 29, 100 ppm Ferrate): 73% | % Reduction in Estrogenic Activity, Liquid Portion (n = 3) [6, 15]: 71% | % Reduction in Estrogenic Activity, Liquid Portion (n = 3) ([6]; Table 29, 200 ppm Ferrate): 72% | % Reduction in Estrogenic Activity, Solid Portion (n = 3) [7, 10]: 40% | % Reduction in Estrogenic Activity, Solid Portion (n = 3) ([7]; Table 28, 50 ppm Ferrate): 40% | % Reduction in Estrogenic Activity, Solid Portion (n = 3) [7, 11]: 43% | % Reduction in Estrogenic Activity, Solid Portion (n = 3) ([7]; Table 28, 100 ppm Ferrate): 27% | % Reduction in Estrogenic Activity, Solid Portion (n = 3) [7, 12]: 51% | % Reduction in Estrogenic Activity, Solid Portion (n = 3) ([7]; Table 28, 200 ppm Ferrate): 59% | % Reduction in Estrogenic Activity, Solid Portion (n = 3) [7, 13]: 29% | % Reduction in Estrogenic Activity, Solid Portion (n = 3) ([7]; Table 29, 50 ppm Ferrate): 30% | % Reduction in Estrogenic Activity, Solid Portion (n = 3) [7, 14]: 20% | % Reduction in Estrogenic Activity, Solid Portion (n = 3) ([7]; Table 29, 100 ppm Ferrate): 31% | % Reduction in Estrogenic Activity, Solid Portion (n = 3) [7, 15]: 30% | % Reduction in Estrogenic Activity, Solid Portion (n = 3) ([7]; Table 29, 200 ppm Ferrate): 29% | inactivation (in words) [8]: inactivated

CC/C(=C(\c1ccc(O)cc1)c1ccc(OCCN(C)C)cc1)c1ccccc1 [hydroxytamoxifen]
response in the YES assay (in words) [9]: partial agonistic (estrogenic) response

From patent US20130032547A1, “STABILIZATION AND DISINFECTION OF WASTES USING HIGH ENERGY E-BEAM AND CHEMICAL OXIDANTS” (priority 2011, published 2013)
